# Measured values published in PubChem BioAssay (NCI).
# Several values for one entry are separate records, joined by “and”; a condition that tells them apart may be missing. Equal entries are not always repeated.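 Five compound concentrations were applied to cells in 96-well plates for 48 hours; endpoints were derived by simple linear interpolation of the resulting dose-response curve. The concentration for 50% growth inhibition is given as GI50. TGI denotes the concentration required for complete inhibition of growth.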
# System: NCI-H23 lung
# Experiment: inhibition of tumour cell growth, NCI panel, 48 h
SMILES,GI50,TGI
Nc1nc(-n2c(-c3ccccc3)nc3c(Br)cc(Br)cc3c2=O)nnc1-c1cccc(Cl)c1Cl,15.7 µM,53.1 µM
Cc1c(C(=O)C/C(=N/NC(=O)c2ccccc2O)C(=O)Nc2ccccc2C(C)C)[n+](=O)c2ccccc2n1[O-],,52.8 µM
CCCCCCCCCCCC(=O)OCCOCCOCCOCCOCCOCc1ccccc1,,> 100 µM
CCCC1C(=O)CCc2c(OC)ccc(OC)c21 (stereo unspecified),,> 100 µM
O=C(CCc1nc(=S)[nH][nH]1)Nc1cc(Cl)c(Cl)cc1Cl,,> 100 µM
COc1ccc(CC2c3cc4c(cc3CCN2C)OCO4)c(C=O)c1OC (stereo unspecified),,> 100 µM
O=C(Nc1nc2ccc([N+](=O)[O-])cc2s1)C(=O)C(C1OC(=O)c2ccccc21)[N+](=O)[O-] (stereo unspecified),,> 100 µM
COc1cc2c(cc1OCCCCN1CCN(CC(=O)Nc3ccc(Cl)cc3C(=O)c3ccccc3Cl)CC1)N=CC1CCCN1C2=O (stereo unspecified),0.206 µM,0.446 µM
O=C(CCc1nc(=S)[nH][nH]1)Nc1ccc(Cl)c(Cl)c1,,> 100 µM
COC(=O)c1ccccc1NC(=O)C(=O)Cc1nc2c3c(ccc2[nH]c1=O)C(=O)c1ccccc1C3=O,,47.2 µM
Cc1ccc(S(=O)(=O)OC[C@@H]2CO2)cc1,,> 100 µM
COc1cc2cc(OC)c3cc4c(cc3c2c(OC)c1OC)OCO4,,> 81.2 µM
O=C(CC(=O)c1cccc2ccccc12)C(=O)Nc1ccc(Cl)cc1,,> 100 µM
OCc1cc2ccccc2c2c3c(ccc12)OCO3,34.1 µM,221 µM
CCCCCCCCCCCCCC(=O)OC(/C=C/C(C)C)C(O)C(O)C(OC)C(=O)NC1CCCCN(C)C1=O (stereo unspecified),,6.48 µM and > 49 µM
CC1(C(=O)O)CCC[C@@]2(C)C1CC[C@@]1(C)c3cocc3CCC21 (stereo partly specified),,> 100 µM
CCn1c(C)nn2c(=O)c3ccccc3nc2c1=O,,> 100 µM
COc1cnc2c(c1)C(=O)c1c-2n(CCCN2CCOCC2)c(=O)c2cc(F)ccc12,0.284 µM,1.84 µM
CCOC(=O)CCC1(C(=O)OCC)CCCCC1=O (stereo unspecified),,> 100 µM
CCOC1Oc2ccccc2C(=O)/C1=C/Nc1ccc(C(C)=O)cc1 (stereo unspecified),13.9 µM,36.2 µM
CCN(CC)CCSc1c2ccccc2nc2cc(NCC(=O)Nc3ccccc3-c3ccccc3NC(=O)CNc3ccc4c(SCCN(CC)CC)c5ccccc5nc4c3)ccc12,,> 100 µM

SMILES,GI50,TGI
Cc1nc2c(ccc3ncccc32)[nH]1,,> 100 µM
Cc1cc(N(CCC#N)CCC#N)ccc1N=Nc1ccc(S(N)(=O)=O)cc1,,> 100 µM
CC(=O)[CH-]C(=O)c1ccccc1.CC(=O)[CH-]C(=O)c1ccccc1.CN(C)c1ccc([O-])cc1.CN(C)c1ccc([O-])cc1.Cl.[Ti+4],21.1 µM,> 31.6 µM
CC1(C)C(=O)/C=C\C(=O)C(C)(C)C2=CC=C(O2)C(C)(C)C(=O)/C=C\C(=O)C(C)(C)C2=CC=C1O2,,> 100 µM
NC(=O)NO.O.O.O.O.O.O.O.O.O.O.O.[Ge].[Ge].[Ge].[Ge].[Ge].[O]=[Ge].[O]=[Ge].[O]=[Ge].[O]=[Ge].[O]=[Ge][OH],,> 100 µM
CN(C)C(=S)N=C(Nc1ccccc1)Nc1ccccc1,,> 100 µM
COC(=O)CC[N+]1=CCC(c2ccccc2)(c2ccccc2)O1,,> 100 µM
CCN(CC)N=Nc1c(C(N)=O)n[nH]c1C,,> 100 µM
CCC[CH2][Sn]([CH2]CCC)([S]c1cccc2cccnc12)[S]c1cccc2cccnc12,0.161 µM,0.422 µM
OCC1=CC(NC2CC(CO)C(O)C(O)C2O)C(O)C(O)C1O (stereo unspecified),,> 100 µM
OCCN(CCO)c1ncnc2c1ncn2Cc1ccc(CCl)cc1,18.3 µM,37.1 µM
Nc1ccccc1S(=O)(=O)N(CC(=O)O)c1ccccc1,,> 100 µM
CCOC(=O)C(C)(C)Oc1ccc2c(-c3ccccc3)cc(=O)oc2c1,,> 100 µM
CNS(=O)(=O)NNS(=O)(=O)c1ccccc1,,> 100 µM
Cc1cc(NS(=O)(=O)c2ccc(Nc3c4ccccc4nc4c(C(=O)N5CCN(CCOS(C)(=O)=O)CC5)cccc34)cc2)no1,,> 100 µM
O=C(O)CCC(NC(=O)c1ccc(Nc2nc3ccccc3nc2-c2cccs2)cc1)C(=O)O (stereo unspecified),,> 100 µM
NC1=NCCC1(c1ccccc1)c1ccccn1 (stereo unspecified),,> 100 µM
CNC(=S)OCCC(C)CCCC(C)C (stereo unspecified),,36.6 µM
COC1/C=C/OC2(C)Oc3c(C)c(O)c4c(O)c(c(/C=N/Nc5ccc([N+](=O)[O-])cc5[N+](=O)[O-])c(O)c4c3C2=O)NC(=O)C(C)=C/C=C/C(C)C(O)C(C)C(O)C(C)C(OC(C)=O)C1C (stereo unspecified),1.7 µM,7.02 µM
COC(=O)/C(C#N)=C1\NC(=O)c2ccccc21,,> 100 µM

# System: RXF 393 renal
# Experiment: inhibition of tumour cell growth, NCI panel, 48 h
SMILES,GI50,TGI
Nc1nc(-n2c(-c3ccccc3)nc3c(Br)cc(Br)cc3c2=O)nnc1-c1cccc(Cl)c1Cl,14.5 µM,58.1 µM
Cc1c(C(=O)C/C(=N/NC(=O)c2ccccc2O)C(=O)Nc2ccccc2C(C)C)[n+](=O)c2ccccc2n1[O-],,> 100 µM
CCCCCCCCCCCC(=O)OCCOCCOCCOCCOCCOCc1ccccc1,,> 100 µM
CCCC1C(=O)CCc2c(OC)ccc(OC)c21 (stereo unspecified),,> 100 µM
O=C(CCc1nc(=S)[nH][nH]1)Nc1cc(Cl)c(Cl)cc1Cl,,> 100 µM
O=C(Nc1nc2ccc([N+](=O)[O-])cc2s1)C(=O)C(C1OC(=O)c2ccccc21)[N+](=O)[O-] (stereo unspecified),,> 100 µM
COc1cc2c(cc1OCCCCN1CCN(CC(=O)Nc3ccc(Cl)cc3C(=O)c3ccccc3Cl)CC1)N=CC1CCCN1C2=O (stereo unspecified),0.186 µM,0.388 µM
COC(=O)c1ccccc1NC(=O)C(=O)Cc1nc2c3c(ccc2[nH]c1=O)C(=O)c1ccccc1C3=O,,26.3 µM
Cc1ccc(S(=O)(=O)OC[C@@H]2CO2)cc1,,> 100 µM
COc1cc2cc(OC)c3cc4c(cc3c2c(OC)c1OC)OCO4,,> 100 µM
CCCCCCCCCCCCCC(=O)OC(/C=C/C(C)C)C(O)C(O)C(OC)C(=O)NC1CCCCN(C)C1=O (stereo unspecified),> 49 µM,6.22 µM and > 49 µM
CC1(C(=O)O)CCC[C@@]2(C)C1CC[C@@]1(C)c3cocc3CCC21 (stereo partly specified),,> 100 µM
COc1cnc2c(c1)C(=O)c1c-2n(CCCN2CCOCC2)c(=O)c2cc(F)ccc12,0.226 µM,0.913 µM
CCOC(=O)CCC1(C(=O)OCC)CCCCC1=O (stereo unspecified),,> 100 µM
CCOC1Oc2ccccc2C(=O)/C1=C/Nc1ccc(C(C)=O)cc1 (stereo unspecified),27 µM,72.6 µM
CCN(CC)CCSc1c2ccccc2nc2cc(NCC(=O)Nc3ccccc3-c3ccccc3NC(=O)CNc3ccc4c(SCCN(CC)CC)c5ccccc5nc4c3)ccc12,,> 100 µM
Cc1nc2c(ccc3ncccc32)[nH]1,,> 100 µM
CCN1CCN(Cc2ccc(NC(=O)c3cccc(C#Cc4cccc5[nH]nc(N)c45)c3)cc2C(F)(F)F)CC1,0.287 µM,0.918 µM

SMILES,GI50,TGI
Cc1cc(N(CCC#N)CCC#N)ccc1N=Nc1ccc(S(N)(=O)=O)cc1,,> 100 µM
CC(=O)[CH-]C(=O)c1ccccc1.CC(=O)[CH-]C(=O)c1ccccc1.CN(C)c1ccc([O-])cc1.CN(C)c1ccc([O-])cc1.Cl.[Ti+4],27.3 µM,> 31.6 µM
CC1(C)C(=O)/C=C\C(=O)C(C)(C)C2=CC=C(O2)C(C)(C)C(=O)/C=C\C(=O)C(C)(C)C2=CC=C1O2,,> 100 µM
NC(=O)NO.O.O.O.O.O.O.O.O.O.O.O.[Ge].[Ge].[Ge].[Ge].[Ge].[O]=[Ge].[O]=[Ge].[O]=[Ge].[O]=[Ge].[O]=[Ge][OH],,> 100 µM
CN(C)C(=S)N=C(Nc1ccccc1)Nc1ccccc1,,> 100 µM
COC(=O)CC[N+]1=CCC(c2ccccc2)(c2ccccc2)O1,,> 100 µM
CCN(CC)N=Nc1c(C(N)=O)n[nH]c1C,,> 100 µM
OCC1=CC(NC2CC(CO)C(O)C(O)C2O)C(O)C(O)C1O (stereo unspecified),,> 100 µM
OCCN(CCO)c1ncnc2c1ncn2Cc1ccc(CCl)cc1,12 µM,37.1 µM
Nc1ccccc1S(=O)(=O)N(CC(=O)O)c1ccccc1,,> 100 µM
CNS(=O)(=O)NNS(=O)(=O)c1ccccc1,,> 100 µM
Cc1cc(NS(=O)(=O)c2ccc(Nc3c4ccccc4nc4c(C(=O)N5CCN(CCOS(C)(=O)=O)CC5)cccc34)cc2)no1,,> 100 µM
O=C(O)CCC(NC(=O)c1ccc(Nc2nc3ccccc3nc2-c2cccs2)cc1)C(=O)O (stereo unspecified),,> 100 µM
NC1=NCCC1(c1ccccc1)c1ccccn1 (stereo unspecified),,> 100 µM
CNC(=S)OCCC(C)CCCC(C)C (stereo unspecified),,30.3 µM
COC1/C=C/OC2(C)Oc3c(C)c(O)c4c(O)c(c(/C=N/Nc5ccc([N+](=O)[O-])cc5[N+](=O)[O-])c(O)c4c3C2=O)NC(=O)C(C)=C/C=C/C(C)C(O)C(C)C(O)C(C)C(OC(C)=O)C1C (stereo unspecified),0.899 µM,1.66 µM
COC(=O)/C(C#N)=C1\NC(=O)c2ccccc21,,> 100 µM

# System: HL-60(TB) leukemia
# Experiment: inhibition of tumour cell growth, NCI panel, 48 h
SMILES,TGI,GI50
Cc1c(C(=O)C/C(=N/NC(=O)c2ccccc2O)C(=O)Nc2ccccc2C(C)C)[n+](=O)c2ccccc2n1[O-],38.3 µM,
CCCCCCCCCCCC(=O)OCCOCCOCCOCCOCCOCc1ccccc1,> 100 µM,
CCCC1C(=O)CCc2c(OC)ccc(OC)c21 (stereo unspecified),> 100 µM,
O=C(CCc1nc(=S)[nH][nH]1)Nc1cc(Cl)c(Cl)cc1Cl,> 100 µM,
COc1ccc(CC2c3cc4c(cc3CCN2C)OCO4)c(C=O)c1OC (stereo unspecified),> 100 µM,
O=C(Nc1nc2ccc([N+](=O)[O-])cc2s1)C(=O)C(C1OC(=O)c2ccccc21)[N+](=O)[O-] (stereo unspecified),> 100 µM,
COc1cc2c(cc1OCCCCN1CCN(CC(=O)Nc3ccc(Cl)cc3C(=O)c3ccccc3Cl)CC1)N=CC1CCCN1C2=O (stereo unspecified),,0.273 µM
